Measured values published in ChEMBL document CHEMBL4483862, “Open-source discovery of chemical leads for next-generation chemoprotective antimalarials” (2018).

System: Plasmodium berghei
Assay: Luciferase/luciferin-expressing antifolate-resistant parasites were used to infect a culture of HepG2 cells that were pre-incubated with compounds. Infected hepatocytes emit light due to the luciferase reaction. Assay results are presented as the percent inhibition of light emission compared to control. […]
Assay type: functional
Conditions: sporozoite; for IC90: read-out: LUCIFERASE INFECTION ASSAY - IC90
[1] = read-out: LUCIFERASE INFECTION ASSAY - IC50

## N#C/C(=C\Nc1cc(C(F)(F)F)cc(C(F)(F)F)c1)S(=O)(=O)c1ccccc1Cl
FFLUC_HILL_SLOPE 5.48, FFLUC_R_SQUARED 0.621, HEPG2TOX_HILL_SLOPE 2.18, HEPG2TOX_R_SQUARED 0.937, read-out: LUCIFERASE INFECTION ASSAY - IC50
  IC50: > 7.26 µM
  IC90: > 7.26 µM

## O=C(NC1CCCc2ccccc21)c1cc(-c2cccs2)nn1-c1ccccc1 (stereo unspecified)
FFLUC_HILL_SLOPE 14.9, FFLUC_R_SQUARED 0.608, PBLUC_HILL_SLOPE 2.01, PBLUC_R_SQUARED 0.0278, read-out: LUCIFERASE INFECTION ASSAY - IC50
  IC50: 6.82 µM
  IC90: > 10 µM

## N#CC(C#N)=NNc1ccc(OC(F)(F)F)cc1
HEPG2TOX_HILL_SLOPE 11.1, HEPG2TOX_R_SQUARED 0.969, PBLUC_HILL_SLOPE 0.201, PBLUC_R_SQUARED 0.0877, read-out: LUCIFERASE INFECTION ASSAY - IC50
  IC50: 0.245 µM
  IC90: > 13 µM

## CO[C@H]1[C@@H](O)[C@@H](C)O[C@H](O[C@H]2CC[C@]3(C)C4CC[C@]5(C)[C@@H](C6=CC(=O)OC6)CC[C@]5(O)C4CC[C@]3(O)C2)[C@@H]1O (stereo partly specified)
HEPG2TOX_HILL_SLOPE 2.49, HEPG2TOX_R_SQUARED 0.917, PBLUC_HILL_SLOPE 3.98, PBLUC_R_SQUARED 0.716, read-out: LUCIFERASE INFECTION ASSAY - IC50
  IC50: 0.148 µM
  IC90: 0.258 µM

## N#Cc1[nH]c2ccc(Cl)cc2c1-c1ccccc1
[1]
  IC50: > 13.1 µM
  IC90: > 13.1 µM

## COc1cc(-c2cnc3ccc(Cc4ccc(F)cc4)nn23)cc(OC)c1OC
[1]
  IC50: 6.26 µM
  IC90: > 10 µM

## CSc1nc(C)nc(C)c1C(=O)Nc1nc(-c2ccc3c(c2)CCCC3)cs1
FFLUC_HILL_SLOPE 9.1, FFLUC_R_SQUARED 0.159, read-out: LUCIFERASE INFECTION ASSAY - IC50
  IC50: > 10 µM
  IC90: > 10 µM

## CCOC(=O)c1sc(S(C)(=O)=O)c2c1CC(C)(C)CC2=O
HEPG2TOX_HILL_SLOPE 8.99, HEPG2TOX_R_SQUARED 0.709, PBLUC_HILL_SLOPE 5.08, PBLUC_R_SQUARED 0.0136, read-out: LUCIFERASE INFECTION ASSAY - IC50
  IC50: > 9.99 µM
  IC90: > 9.99 µM

## CCc1c(C)sc2nc(SCc3nc4ccccc4s3)n(-c3ccc(O)cc3C)c(=O)c12
[1]
  IC50: > 10 µM
  IC90: > 10 µM

## COc1ccccc1N(CC(=O)NCC12CC3CC(CC(C3)C1)C2)S(=O)(=O)c1ccccc1
HEPG2TOX_HILL_SLOPE 6.27, HEPG2TOX_R_SQUARED 0.869, read-out: LUCIFERASE INFECTION ASSAY - IC50
  IC50: > 10 µM
  IC90: > 10 µM

## CCN(CC)c1ccc(Nc2nc(-c3ccncc3)cs2)cc1
HEPG2TOX_HILL_SLOPE 17.3, HEPG2TOX_R_SQUARED 0.807, PBLUC_HILL_SLOPE 2.78, PBLUC_R_SQUARED 0.42, read-out: LUCIFERASE INFECTION ASSAY - IC50
  IC50: 4.75 µM
  IC90: > 8.14 µM

## CCO/C(C)=N\OC(=O)c1c(-c2c(Cl)cccc2Cl)noc1C
[1]
  IC50: > 9.24 µM
  IC90: > 9.24 µM

## Cc1cc(OCC(=O)/N=c2/sccn2C)c(C(C)C)cc1Cl
[1]
  IC50: > 10 µM
  IC90: > 10 µM

## CC(C)Cc1ccc(C2=Nn3c(nnc3-c3cccs3)SC2C)cc1 (stereo unspecified)
[1]
  IC50: > 7.34 µM
  IC90: > 7.34 µM

## CC(C)(C)C(=O)COC(=O)c1ccc(-c2ccc(O)cc2)cc1
[1]
  IC50: > 10 µM
  IC90: > 10 µM

## COc1ccc(Nc2nccc3c2cc(-c2cccc(OC)c2)n3C)cc1
PBLUC_HILL_SLOPE 2.81, PBLUC_R_SQUARED 0.348, read-out: LUCIFERASE INFECTION ASSAY - IC50
  IC50: 3.73 µM
  IC90: 8.15 µM

## Cc1ccc(C(=O)c2c(NC(=O)CSc3nc4ccccc4n3CC(C)C)sc3c2CCCC3)cc1
FFLUC_HILL_SLOPE 15.8, FFLUC_R_SQUARED 0.569, HEPG2TOX_HILL_SLOPE 0.459, HEPG2TOX_R_SQUARED 0.518, PBLUC_HILL_SLOPE 11.3, PBLUC_R_SQUARED 0.271, read-out: LUCIFERASE INFECTION ASSAY - IC50
  IC50: > 10 µM
  IC90: > 10 µM

## Cn1cc(Br)c(-c2cccc(NC(=O)Nc3ccc(Cl)cc3)c2)n1
HEPG2TOX_HILL_SLOPE 7.05, HEPG2TOX_R_SQUARED 0.913, PBLUC_HILL_SLOPE 7.26, PBLUC_R_SQUARED 0.779, read-out: LUCIFERASE INFECTION ASSAY - IC50
  IC50: > 8.13 µM
  IC90: > 8.13 µM

## CN(C)CCNC(=O)c1ccc(-c2cn3c(-c4ccc5ncccc5c4)cnc3cn2)cc1
HEPG2TOX_HILL_SLOPE 1.62, HEPG2TOX_R_SQUARED 0.706, PBLUC_HILL_SLOPE 13, PBLUC_R_SQUARED 0.311, read-out: LUCIFERASE INFECTION ASSAY - IC50
  IC50: 6.52 µM
  IC90: > 7.56 µM

## COc1cc(OC)cc(-c2cnc3cnc(-c4ccccc4C)cn23)c1
HEPG2TOX_HILL_SLOPE 1.68, HEPG2TOX_R_SQUARED 0.933, PBLUC_HILL_SLOPE 2.21, PBLUC_R_SQUARED 0.835, read-out: LUCIFERASE INFECTION ASSAY - IC50
  IC50: 0.97 µM
  IC90: 2.62 µM

## CN(C)CCNC(=O)c1cccc(-c2cnc3ccc(-c4ccc(F)cc4)nn23)c1
HEPG2TOX_HILL_SLOPE 10.3, HEPG2TOX_R_SQUARED 0.505, PBLUC_HILL_SLOPE 2.09, PBLUC_R_SQUARED 0.253, read-out: LUCIFERASE INFECTION ASSAY - IC50
  IC50: 4.88 µM
  IC90: > 10 µM

## CCC(C)(C)c1ccc(OCC(=O)Nc2ccc(Cl)c(N)c2)c(C(C)(C)CC)c1
FFLUC_HILL_SLOPE 11.8, FFLUC_R_SQUARED 0.0263, PBLUC_HILL_SLOPE 15.2, PBLUC_R_SQUARED 0.794, read-out: LUCIFERASE INFECTION ASSAY - IC50
  IC50: 2.66 µM
  IC90: 3.07 µM

## CN1CCN(c2ccc(NC(=O)c3c[nH]c4ccc(Br)cc34)cn2)CC1
PBLUC_HILL_SLOPE 3.31, PBLUC_R_SQUARED 0.596, read-out: LUCIFERASE INFECTION ASSAY - IC50
  IC50: 8.19 µM
  IC90: > 10 µM

## Cc1nc(NC(=O)CSc2nnc(-c3c[nH]c4ccccc34)n2C2CC2)c(Cl)cc1Cl
HEPG2TOX_HILL_SLOPE 15.3, 2.10, HEPG2TOX_R_SQUARED 0.288, 0.992, PBLUC_HILL_SLOPE 2.43, PBLUC_R_SQUARED 0.583, read-out: LUCIFERASE INFECTION ASSAY - IC50
  IC50: 4.48 µM
  IC90: > 10 µM

## CC(=O)c1ccccc1NC(=O)COC(=O)c1c2c(nc3ccccc13)CCC2
HEPG2TOX_HILL_SLOPE 1.9, HEPG2TOX_R_SQUARED 0.384, PBLUC_HILL_SLOPE 3.75, PBLUC_R_SQUARED 0.218, read-out: LUCIFERASE INFECTION ASSAY - IC50
  IC50: 6.16 µM
  IC90: > 10 µM

## CC(C)(c1ccccc1)c1ccc(OCC(O)CNCCSc2ccc(Br)cc2)cc1 (stereo unspecified)
[1]
  IC50: > 10 µM
  IC90: > 10 µM

## COc1ccc(NC(=O)C2Cc3c(-c4cccc(C(C)=O)c4)ccnc3O2)cc1OC (stereo unspecified)
FFLUC_HILL_SLOPE 0.226, FFLUC_R_SQUARED 0.216, HEPG2TOX_HILL_SLOPE 3.1, HEPG2TOX_R_SQUARED 0.695, PBLUC_HILL_SLOPE 3.79, PBLUC_R_SQUARED 0.351, read-out: LUCIFERASE INFECTION ASSAY - IC50
  IC50: 4.93 µM
  IC90: > 7.89 µM

## COc1cccc(/C=N/NC(=O)C2CCCN(C(=S)NNC3CC4C=CC3C4)CC2)c1O (stereo unspecified)
PBLUC_HILL_SLOPE 0.853, PBLUC_R_SQUARED 0.602, read-out: LUCIFERASE INFECTION ASSAY - IC50
  IC50: 1.47 µM
  IC90: > 7.21 µM

## COc1ccc(/C=C2\C(=O)/C(=C/c3ccc(OC)c(O)c3)c3ccccc32)cc1O
HEPG2TOX_HILL_SLOPE 2.67, HEPG2TOX_R_SQUARED 0.974, PBLUC_HILL_SLOPE 3.5, PBLUC_R_SQUARED 0.766, read-out: LUCIFERASE INFECTION ASSAY - IC50
  IC50: 1.85 µM
  IC90: 3.46 µM

## CCOc1cc(-c2nccc3cc(OC)c(OC)cc23)cc(OCC)c1OCC [OCTAVERINE]
PBLUC_HILL_SLOPE 10.1, PBLUC_R_SQUARED 0.35, read-out: LUCIFERASE INFECTION ASSAY - IC50
  IC50: 6.45 µM
  IC90: 8.02 µM

## O=C(Cn1cnc2sccc2c1=O)Nc1nc(-c2ccccn2)cs1
HEPG2TOX_HILL_SLOPE 0.285, HEPG2TOX_R_SQUARED 0.277, PBLUC_HILL_SLOPE 15.4, PBLUC_R_SQUARED 0.28, read-out: LUCIFERASE INFECTION ASSAY - IC50
  IC50: 9.25 µM
  IC90: > 10 µM

## Cc1sc(NC(=O)c2ccc(Cn3cncn3)cc2)nc1-c1ccc(Br)cc1
HEPG2TOX_HILL_SLOPE 2.39, HEPG2TOX_R_SQUARED 0.794, PBLUC_HILL_SLOPE 2.3, PBLUC_R_SQUARED 0.342, read-out: LUCIFERASE INFECTION ASSAY - IC50
  IC50: > 10 µM
  IC90: > 10 µM

## CC(C)CN1CCC1(C(=O)NCc1cccc2ccccc12)c1ccccc1 (stereo unspecified)
HEPG2TOX_HILL_SLOPE 0.125, HEPG2TOX_R_SQUARED 0.379, PBLUC_HILL_SLOPE 1.82, PBLUC_R_SQUARED 0.397, read-out: LUCIFERASE INFECTION ASSAY - IC50
  IC50: 5.57 µM
  IC90: > 8.86 µM

## Cc1ccc(S(=O)(=O)c2c(C)nn(C(C)(C)C)c2OC(=O)c2cccc([N+](=O)[O-])c2)cc1
[1]
  IC50: > 10 µM
  IC90: > 10 µM

## COc1ccc(NC(C)=O)cc1Nc1ncnc2scc(-c3ccccc3)c12
PBLUC_HILL_SLOPE 3.37, PBLUC_R_SQUARED 0.17, read-out: LUCIFERASE INFECTION ASSAY - IC50
  IC50: 9.19 µM
  IC90: > 10 µM

## N#Cc1cccc(CN2CCN3C(C(=O)Nc4ccc(Oc5ccccc5)cc4)=COC3=NC2=O)c1
HEPG2TOX_HILL_SLOPE 5.43, HEPG2TOX_R_SQUARED 0.0351, read-out: LUCIFERASE INFECTION ASSAY - IC50
  IC50: > 10 µM
  IC90: > 10 µM

## COc1ccccc1-c1nc(CCl)cs1
[1]
  IC50: > 10 µM
  IC90: > 10 µM

## Cc1cc(C(=O)Cn2cnc3ccccc3c2=O)c(C)n1-c1ccccc1F
HEPG2TOX_HILL_SLOPE 1.86, HEPG2TOX_R_SQUARED 0.464, PBLUC_HILL_SLOPE 1.21, PBLUC_R_SQUARED 0.574, read-out: LUCIFERASE INFECTION ASSAY - IC50
  IC50: 3.66 µM
  IC90: > 10 µM
